Earlier results on one molecule are cited in patent publication US20100179106A1, “MITOCHONDRIAL COMPOSITIONS AND USES THEREOF” (Gencia Corporation, priority 2007, published 2010).

The test system of series [1] is patients with mitochondrial disorders. Conditions: short-term study, creatine supplementation (Tarnopolsky et al. 1997).
On the set-up of series [2]: dose or concentration left out as unconfirmed. Conditions: dosages as high as (Harris et al. 1992).
The test system of series [3] is brain slice cultures. Conditions: 20 mM creatine, brain slice cultures (Li et al. 2004).

For the molecule `CN(CC(=O)O)C(=N)N` [creatine, 2-(carbamimidoyl-methyl-amino) acetic acid], in series [1], the “high-intensity anaerobic and aerobic activities” value is given as “improved”; the lower-intensity aerobic activities entry was “no effect”. The side effects result in series [2] was “no reported side effects”. Besides, the mitochondrial activity entry in series [3] is “sufficient to stimulate mitochondrial activity”.
